Laboratory results as given in publication PMC5146859, “Phase 1/2 study of pacritinib, a next generation JAK2/FLT3 inhibitor, in myelofibrosis or other myeloid malignancies” (Journal of Hematology & Oncology, 2016).
Read-outs that look alike come from different tables or passages of the source.

Assays:
[1] = Phase 1 pharmacokinetics (liquid chromatography/tandem mass spectrometry); format: in vivo, human; parameters: C24h, Mean / C24h, Median: unit not given here; conditions: for Tmax / AUC(0-t) / Cmax: human, in vivo
Procedure: In phase 1, full PK sampling was performed on days 1 and 15 of cycle 1 and day 1 of cycle 2. Trough PK samples were drawn prior to dosing on days 8 and 22 of cycle 1 and at 24, 48, and 72 h after dosing on day 25 of cycle 1. A sample was collected before dosing on day 1 of cycles 4, 7, and 10. Pacritinib concentrations were determined using a validated liquid chromatography/tandem mass spectrometry method. An analysis of clinical exposures from the HCl and citrate salts of pacritinib was performed comparing Day 1 PK data from 12 patients who received the HCl salt formulation in the 200 mg cohorts of this study and two other pacritinib studies [NCT00741871 and NCT00745550]) with six patients in the 200 mg cohort of this study who received the citrate salt formulation.

[2] = test system: patients with MF; assay: Phase 2 MF Quality of Life and Symptoms Assessment Tool; format: in vivo, human; conditions: phase 2, 400 mg QD
Procedure: In phase 2, abdominal MRI to assess spleen and liver volume was performed on day 1 of cycles 1, 4, and 7 and then day 1 of every third cycle through cycle 25. Spleen size (length) was also assessed by manual palpation with each scheduled physical examination. The phase 2 study protocol was amended in September 2009 to include the MF Quality of Life and Symptoms Assessment Tool. […] The instrument was administered pre-dose on day 1 of cycles 1, 2, 4, 7, and 10 and then on day 1 of every third cycle through cycle 25.
The primary endpoint of the phase 2 component was the proportion of the efficacy population who achieved a ≥35% reduction in spleen volume from baseline at week 24, as measured by MRI. Spleen response rate was also assessed in terms of a ≥35% reduction in spleen volume by MRI up to week 24 and end of treatment and as a ≥50% reduction in spleen length by physical examination up to week 24 and end of treatment. Duration of response was not analyzed due to limitations in the proportion of responders. An exploratory endpoint was the proportion of patients with a ≥50% reduction in MF Quality of Life and Symptoms Assessment Tool at week 24 compared with baseline.

[3] = phase 1, Day 1, 200 mg (HCl and citrate salt cohorts pooled)
[4] = phase 1, Day 15, 200 mg (HCl and citrate salt cohorts pooled)

C1=C/COCc2cc(ccc2OCCN2CCCC2)Nc2nccc(n2)-c2cccc(c2)COC/1 [pacritinib, 11-(2-pyrrolidin-1-yl-ethoxy)-14,19-dioxa-5,7,26-triaza-tetracyclo[19.3.1.1(2,6). 1(8,12)]heptacosa-1(25),2(26),3,5,8,10,12(27),16,21,23-decaene]
Tmax ([1]; oral, phase 1, day 1, 100-600 mg, read-out: Median time to maximum concentration (Tmax), range over dose cohorts): 4 to 8 h | Tmax ([1]; oral, phase 1, day 15, 100-600 mg, read-out: Median time to maximum concentration (Tmax), range over dose cohorts): 2.5 to 5 h | AUC(0-t) ([1]; po, 200 mg, phase 1, Day 1, 200 mg (HCl and citrate salt cohorts pooled), read-out: AUC0-24h, Mean): 93.3 µg·h/mL | AUC(0-t) ([1]; po, 200 mg, phase 1, Day 1, 200 mg (HCl and citrate salt cohorts pooled), read-out: AUC0-24h, Median): 87.3 µg·h/mL | Cmax ([1]; po, 200 mg, phase 1, Day 1, 200 mg (HCl and citrate salt cohorts pooled), read-out: Cmax, Mean): 5000 ng/mL | Cmax ([1]; po, 200 mg, phase 1, Day 1, 200 mg (HCl and citrate salt cohorts pooled), read-out: Cmax, Median): 4570 ng/mL | Tmax ([1]; po, 200 mg, phase 1, Day 1, 200 mg (HCl and citrate salt cohorts pooled), read-out: Tmax, Median): 5 h | AUC(0-t) ([1]; po, 200 mg, phase 1, Day 15, 200 mg (HCl and citrate salt cohorts pooled), read-out: AUC0-24h, Mean): 125 µg·h/mL | AUC(0-t) ([1]; po, 200 mg, phase 1, Day 15, 200 mg (HCl and citrate salt cohorts pooled), read-out: AUC0-24h, Median): 130 µg·h/mL | Cmax ([1]; po, 200 mg, phase 1, Day 15, 200 mg (HCl and citrate salt cohorts pooled), read-out: Cmax, Mean): 6700 ng/mL | Cmax ([1]; po, 200 mg, phase 1, Day 15, 200 mg (HCl and citrate salt cohorts pooled), read-out: Cmax, Median): 6450 ng/mL | Tmax ([1]; po, 200 mg, phase 1, Day 15, 200 mg (HCl and citrate salt cohorts pooled), read-out: Tmax, Median): 5 h | C24h, Mean ([1]; phase 1, Day 1, 100 mg): 2440 | C24h, Median ([1]; phase 1, Day 1, 100 mg): 2318 | C24h, Mean ([1]; phase 1, Day 1, 150 mg): 3113 | C24h, Median ([1]; phase 1, Day 1, 150 mg): 2316 | C24h, Mean [1, 3]: 3921 | C24h, Median [1, 3]: 3026 | C24h, Mean ([1]; phase 1, Day 1, 300 mg): 4213 | C24h, Median ([1]; phase 1, Day 1, 300 mg): 3528 | C24h, Mean ([1]; phase 1, Day 1, 400 mg): 5644 | C24h, Median ([1]; phase 1, Day 1, 400 mg): 4725 | C24h, Mean ([1]; phase 1, Day 1, 500 mg): 5899 | C24h, Median ([1]; phase 1, Day 1, 500 mg): 4417 | C24h, Mean ([1]; phase 1, Day 1, 600 mg): 5093 | C24h, Median ([1]; phase 1, Day 1, 600 mg): 4136 | C24h, Mean ([1]; phase 1, Day 15, 100 mg): 3945 | C24h, Median ([1]; phase 1, Day 15, 100 mg): 4322 | C24h, Mean ([1]; phase 1, Day 15, 150 mg): 5428 | C24h, Median ([1]; phase 1, Day 15, 150 mg): 5026 | C24h, Mean [1, 4]: 4852 | C24h, Median [1, 4]: 4993 | C24h, Mean ([1]; phase 1, Day 15, 300 mg): 4965 | C24h, Median ([1]; phase 1, Day 15, 300 mg): 4850 | C24h, Mean ([1]; phase 1, Day 15, 400 mg): 8429 | C24h, Median ([1]; phase 1, Day 15, 400 mg): 10168 | C24h, Mean ([1]; phase 1, Day 15, 500 mg): 6550 | C24h, Median ([1]; phase 1, Day 15, 500 mg): 5685 | C24h, Mean ([1]; phase 1, Day 15, 600 mg): 6439 | C24h, Median ([1]; phase 1, Day 15, 600 mg): 5417 | Between-patient coefficient of variation for Cmax and AUC0–24 ([1]; phase 1, day 1): 25 to 63% | Dose proportionality of exposure (Cmax, C24, AUC0–24) ([1]; phase 1, day 1): less than dose-proportional | Between-patient coefficient of variation for Cmax and AUC0–24 ([1]; phase 1, day 15): 20–54% | Dose dependence of exposure (Cmax, C24, AUC0–24) ([1]; phase 1, day 15): plateau above the 400 mg dose level | Individual symptoms and overall quality of life score [2]: Improvement was seen in each of the individual symptoms | Bone pain, Mean percent change from baseline at Week 24 (SD) ([2]; N = 11): -51.6 (43.04) % | Night sweats, Mean percent change from baseline at Week 24 (SD) ([2]; N = 11): -31.3 (85.45) % | Itching (pruritus), Mean percent change from baseline at Week 24 (SD) ([2]; N = 12): -62.6 (45.35) % | Abdominal pain, Mean percent change from baseline at Week 24 (SD) ([2]; N = 16): -54.2 (58.14) % | Overall quality of life, Mean percent change from baseline at Week 24 (SD) ([2]; N = 16): -38.1 (49.50) % | Early satiety, Mean percent change from baseline at Week 24 (SD) ([2]; N = 17): -42.2 (37.53) % | Fatigue – worst, Mean percent change from baseline at Week 24 (SD) ([2]; N = 18): -12.5 (63.55) % | Total symptom score, Mean percent change from baseline at Week 24 (SD) ([2]; N = 18): -27.5 (39.01) % | Evaluable patients with ≥50% reduction in MF Quality of Life and Symptom Assessment total score ([2]; week 24 (7/18)): 38.9%
